Reference: patent US20230348394A1, “COMPOSITIONS AND METHODS FOR TREATING MUSCULAR DYSTROPHIES” (The Regents of the University of California, priority 2020, published 2023)

Tests used:
SSPN mRNA = assay: siRNA-mediated knockdown of SSPN in mdx myotubes, SSPN mRNA; format: cell-based, murine
Method: RNA from myotubes treated for 48 hrs was extracted from cells using Trizol-based (Thermo Fisher Scientific) phase separation, Chomczynski et al., Biotechniques. 1993; 15(3):532-4, 6-7. RNA concentrations were determined using a NanoDrop 1000 (Thermo Fisher Scientific) and 750 ng of RNA in a 20 Id reaction was reverse transcribed using iScript cDNA synthesis (Bio-Rad) with the following cycling conditions: 25° C. for 5 mins, 42° C. for 30 mins, 85° C. for 5 mins. For mouse qPCR, SsoFast EvaGreen Supermix (Bio-Rad), 400 nM of each optimized forward and reverse primer (SSPN F: 5′ […] 3′, SSPN R: 5′ […] 3′, BACT F: 5′ […] 3′, BACT R: 5′ […] 3′), and cDNA corresponding to 37.5 ng RNA were used to amplify cDNA measured by QuantStudio 5 Real-Time PCR System (Thermo Fisher Scientific) with the following reaction conditions: 55° C. for 2 mins, 95° C. for 2 mins, 40 cycles of 95° C. for 10 seconds and 62° C. for 30 seconds, and dissociation stage. For qPCR of human samples, TaqMan assays were used to quantify SSPN (assay ID Hs01025520m 1) and ACTB (assay ID Hs01060665_g1) with the following reaction conditions: 50° C. for 2 mins, 95° C. for 10 mins, 40 cycles of 95° C. for 15 seconds and 62° C. for 1 minute. […] Data was analyzed using the ddCT method and normalized to reference gene ACTB with vehicle-treated samples serving as the calibrator (relative expression of vehicle control=1). […]

[1] = test system: alpha-dystroglycan (α-DG) at the cell surface; assay: Cell surface protein biotinylation and immunoblot, C2C12 myotubes; format: cell-based, murine; conditions: 5 μM, 48 hours
Method: Myotubes treated for 48 hrs were lysed using RIPA buffer (Thermo Fisher Scientific) containing Halt Protease Inhibitor Cocktail (Thermo Fisher Scientific). Cell lysates in RIPA buffer were rocked for 1 hr at 4° C. and centrifuged at 1,000 RPM for 30 mins at 4° C. The supernatant was collected, quantified for protein concentration using the DC protein assay (Bio-Rad), and normalized to 2 mg/ml in water and Laemmli sample buffer with a final concentration of 10% glycerol (Sigma-Aldrich), 5% beta-mercaptoethanol (Sigma-Aldrich), 3% sodium dodecyl sulfate (Sigma-Aldrich), and 0.05% bromophenol blue (Sigma-Aldrich). For SDS-PAGE, samples were heated to 95° C. for 2 mins before loading 40 μg onto 4-12% tris-glycine or bis-tris polyacrylamide gels (Novex), electrophoresed for 2 hrs at 100 volts at RT, and transferred to a nitrocellulose membrane for 2 hrs at 100 volts at 4° C. Ponceau S staining was performed to visualize protein loading and verify protein transfer. […] Autoradiography films were developed using a SRX-101A tabletop processor (Konica Minolta), scanned to a digital file, and analyzed by densitometry of bands using ImageJ version 1.51 s. […]

CCN(CC)c1ccc2cc(C(=O)Nc3ccc(C(=O)N4CCCCCC4)cc3)c(=O)oc2c1 [OT-9]
SSPN mRNA levels under SSPN knockdown (SSPN mRNA; 24 nM SSPN siRNA plus OT-9): increased SSPN mRNA levels
increase of SSPN mRNA relative to the vehicle control (SSPN mRNA; 24 nM scramble siRNA plus 1, 5 or 10 μM OT-9): up to 1.4 fold
increase of core α-DG at the cell surface [1]: 1.6 fold
increase of glycosylated α-DG at the cell surface [1]: 1.8 fold
